Laboratory results from US10131652B2, “Pyrimidinyloxy benzene derivatives as herbicides” (E. I. DU PONT DE NEMOURS AND COMPANY, priority 2014, dated 2018).

Key:
Format in all cases: in vivo
[1] = test system: kochia (Kochia scoparia); assay: Test B pre-/postemergence plant response
How it was run: (§1)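 Evaluation is visual, about 10 days after application, rating injury from 0 (none) to 100 (complete control) relative to untreated controls. Application was a preemergence soil spray on seeded pots or a postemergence spray on one- to two-leaf plants.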

[2] = test system: Italian ryegrass (Lolium multiflorum); assay: Test B pre-/postemergence plant response
How it was run: as §1

[3] = test system: ragweed (common ragweed, Ambrosia elatior); assay: Test B pre-/postemergence plant response
How it was run: as §1

[4] = test system: barnyardgrass (Echinochloa crus-galli); assay: Test D pre-/postemergence plant response
How it was run: (§2)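 Seeds were planted in a loam and sand blend and sprayed preemergence. In parallel, seedlings grown in peat moss/vermiculite medium were sprayed postemergence at 2 to 18 cm height. Both used a surfactant-containing non-phytotoxic solvent. Greenhouse ratings at 13 to 15 days used a 0–100 control scale.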

[5] = test system: corn (Zea mays); assay: Test D pre-/postemergence plant response
How it was run: as §2

[6] = test system: waterhemp (common waterhemp, Amaranthus rudis); assay: Test D pre-/postemergence plant response
How it was run: as §2

[7] = test system: blackgrass (Alopecurus myosuroides); assay: Test D pre-/postemergence plant response
How it was run: as §2

[8] = test system: velvetleaf (Abutilon theophrasti); assay: Test D pre-/postemergence plant response
How it was run: as §2

[9] = test system: morningglory (Ipomoea coccinea); assay: Test D pre-/postemergence plant response
How it was run: as §2

[10] = test system: large (Lg) crabgrass (Digitaria sanguinalis); assay: Test D pre-/postemergence plant response
How it was run: as §2

[11] = test system: soybean (Glycine max); assay: Test D pre-/postemergence plant response
How it was run: as §2

[12] = test system: Italian ryegrass (Lolium multiflorum); assay: Test D pre-/postemergence plant response
How it was run: as §2

[13] = test system: lambsquarters (Chenopodium album); assay: Test D pre-/postemergence plant response
How it was run: as §2

[14] = test system: pigweed (Amaranthus retroflexus); assay: Test D pre-/postemergence plant response
How it was run: as §2

[15] = test system: giant foxtail (Setaria faberii); assay: Test D pre-/postemergence plant response
How it was run: as §2

[16] = 31 g ai/ha, Postemergence, 0 to 100 scale, 0 no effect, 100 complete control
[17] = 31 g ai/ha, Preemergence, 0 to 100 scale where 0 is no effect and 100 is complete control
[18] = 125 g ai/ha, postemergence, 0 to 100 scale, 0 no effect, 100 complete control
[19] = Postemergence, 16 g ai/ha, scale 0 to 100 (0 no effect, 100 complete control)
[20] = Postemergence, 31 g ai/ha, scale 0 to 100 (0 no effect, 100 complete control)
[21] = Postemergence, 62 g ai/ha, scale 0 to 100, 0 no effect, 100 complete control
[22] = Postemergence, 125 g ai/ha, scale 0 to 100, 0 no effect, 100 complete control
[23] = Preemergence, 16 g ai/ha, scale 0 to 100 (0 no effect, 100 complete control)
[24] = Preemergence, 31 g ai/ha, scale 0 to 100 (0 no effect, 100 complete control)
[25] = Preemergence, 62 g ai/ha, scale 0 to 100 (0 no effect, 100 complete control)

Fc1ccc(Oc2ncc(Cl)cn2)c(-c2cc(C(F)F)on2)c1F [Compound 113]
Plant response rating, Kochia [1, 16]: 100 | Plant response rating, Kochia [1, 17]: 100 | Plant response rating, Kochia [1, 18]: 100 | Plant response rating, Kochia ([1]; Preemergence, 125 g ai/ha, 0 to 100 scale where 0 is no effect and 100 is complete control): 100 | Plant response rating, Ryegrass, Italian [2, 16]: 20 | Plant response rating, Ryegrass, Italian [2, 17]: 10 | Plant response rating, Ryegrass, Italian [2, 18]: 70 | Plant response rating, Ragweed [3, 16]: 50 | Plant response rating, Ragweed [3, 17]: 30 | Plant response rating, Ragweed [3, 18]: 80 | Barnyardgrass plant response rating [4, 19]: 10 | Barnyardgrass plant response rating [4, 20]: 15 | Plant response rating, Barnyardgrass [4, 21]: 20 | Plant response rating, Barnyardgrass [4, 22]: 25 | Plant response rating (scale 0 to 100), Barnyardgrass ([4]; Preemergence, 62 g ai/ha): 98 | Plant response rating (scale 0 to 100), Barnyardgrass ([4]; Preemergence, 125 g ai/ha): 100 | Plant response rating, Barnyardgrass [4, 23]: 30 | Plant response rating, Barnyardgrass [4, 24]: 95 | Corn plant response rating [5, 19]: 5 | Corn plant response rating [5, 20]: 10 | Plant response rating, Corn [5, 21]: 20 | Plant response rating, Corn [5, 22]: 25 | Plant response rating (scale 0 to 100), Corn ([5]; Preemergence, 125 g ai/ha): 40 | Plant response rating, Corn [5, 23]: 0 | Plant response rating, Corn [5, 24]: 0 | Plant response rating, Corn [5, 25]: 25 | Waterhemp plant response rating [6, 19]: 85 | Waterhemp plant response rating [6, 20]: 80 | Plant response rating, Waterhemp [6, 21]: 85 | Plant response rating, Waterhemp [6, 22]: 90 | Plant response rating (scale 0 to 100), Waterhemp ([6]; Preemergence, 125 g ai/ha): 100 | Plant response rating, Waterhemp [6, 23]: 100 | Plant response rating, Waterhemp [6, 24]: 100 | Plant response rating, Waterhemp [6, 25]: 100 | Blackgrass plant response rating [7, 19]: 5 | Blackgrass plant response rating [7, 20]: 15 | Plant response rating, Blackgrass [7, 21]: 10 | Plant response rating, Blackgrass [7, 22]: 40 | Plant response rating (scale 0 to 100), Blackgrass ([7]; Preemergence, 125 g ai/ha): 80 | Plant response rating, Blackgrass [7, 23]: 10 | Plant response rating, Blackgrass [7, 24]: 40 | Plant response rating, Blackgrass [7, 25]: 70 | Velvetleaf plant response rating [8, 19]: 60 | Velvetleaf plant response rating [8, 20]: 60 | Plant response rating, Velvetleaf [8, 21]: 70 | Plant response rating, Velvetleaf [8, 22]: 70 | Plant response rating (scale 0 to 100), Velvetleaf ([8]; Preemergence, 125 g ai/ha): 100 | Plant response rating, Velvetleaf [8, 23]: 70 | Plant response rating, Velvetleaf [8, 24]: 85 | Plant response rating, Velvetleaf [8, 25]: 100 | Morningglory plant response rating [9, 19]: 85 | Morningglory plant response rating [9, 20]: 75 | Plant response rating, Morningglory [9, 21]: 85 | Plant response rating, Morningglory [9, 22]: 80 | Plant response rating (scale 0 to 100), Morningglory ([9]; Preemergence, 125 g ai/ha): 95 | Plant response rating, Morningglory [9, 23]: 20 | Plant response rating, Morningglory [9, 24]: 35 | Plant response rating, Morningglory [9, 25]: 85 | Crabgrass, Large plant response rating [10, 19]: 10 | Crabgrass, Large plant response rating [10, 20]: 20 | Plant response rating, Crabgrass, Large [10, 21]: 25 | Plant response rating, Crabgrass, Large [10, 22]: 25 | Plant response rating (scale 0 to 100), Crabgrass, Large ([10]; Preemergence, 125 g ai/ha): 100 | Plant response rating, Crabgrass, Large [10, 23]: 98 | Plant response rating, Crabgrass, Large [10, 24]: 100 | Plant response rating, Crabgrass, Large [10, 25]: 100 | Soybean plant response rating [11, 19]: 80 | Soybean plant response rating [11, 20]: 55 | Plant response rating, Soybean [11, 21]: 65 | Plant response rating, Soybean [11, 22]: 75 | Plant response rating (scale 0 to 100), Soybean ([11]; Preemergence, 125 g ai/ha): 80 | Plant response rating, Soybean [11, 23]: 35 | Plant response rating, Soybean [11, 24]: 40 | Plant response rating, Soybean [11, 25]: 90 | Ryegrass, Italian plant response rating [12, 19]: 5 | Ryegrass, Italian plant response rating [12, 20]: 5 | Plant response rating, Ryegrass, Italian [12, 21]: 5 | Plant response rating, Ryegrass, Italian [12, 22]: 5 | Plant response rating (scale 0 to 100), Ryegrass, Italian ([12]; Preemergence, 125 g ai/ha): 70 | Plant response rating, Ryegrass, Italian [12, 23]: 5 | Plant response rating, Ryegrass, Italian [12, 24]: 10 | Plant response rating, Ryegrass, Italian [12, 25]: 60 | Lambsquarters plant response rating [13, 19]: 70 | Lambsquarters plant response rating [13, 20]: 85 | Plant response rating, Lambsquarters [13, 21]: 95 | Plant response rating, Lambsquarters [13, 22]: 90 | Plant response rating (scale 0 to 100), Lambsquarters ([13]; Preemergence, 125 g ai/ha): 98 | Plant response rating, Lambsquarters [13, 23]: 85 | Plant response rating, Lambsquarters [13, 24]: 98 | Plant response rating, Lambsquarters [13, 25]: 98 | Pigweed plant response rating [14, 19]: 90 | Pigweed plant response rating [14, 20]: 90 | Plant response rating, Pigweed [14, 21]: 95 | Plant response rating, Pigweed [14, 22]: 100 | Plant response rating (scale 0 to 100), Pigweed ([14]; Preemergence, 125 g ai/ha): 100 | Plant response rating, Pigweed [14, 23]: 100 | Plant response rating, Pigweed [14, 24]: 100 | Plant response rating, Pigweed [14, 25]: 100 | Foxtail, Giant plant response rating [15, 19]: 5 | Foxtail, Giant plant response rating [15, 20]: 5 | Plant response rating, Foxtail, Giant [15, 21]: 10 | Plant response rating, Foxtail, Giant [15, 22]: 10 | Plant response rating (scale 0 to 100), Foxtail, Giant ([15]; Preemergence, 125 g ai/ha): 100 | Plant response rating, Foxtail, Giant [15, 23]: 85 | Plant response rating, Foxtail, Giant [15, 24]: 100 | Plant response rating, Foxtail, Giant [15, 25]: 100
